According to EPA's ToxValDB 9.5 (doi:10.2903/j.efsa.2014.3353):

Legend:
[1] = system: Cyprinodon variegatus; conditions: acute; duration: 96 hours; mortality
[2] = system: Colinus virginianus; conditions: for LD50: acute, oral, mortality
[3] = system: Apis mellifera; conditions: acute, duration: 48 hours, mortality
[4] = system: Rattus norvegicus
[5] = system: Oryctolagus sp.; conditions: reproduction developmental; body weight
[6] = system: Bibionidae; conditions: chronic/long-term; duration: 28 days; development
[7] = system: Pimephales promelas; conditions: chronic/long-term; duration: 28 days; growth
[8] = system: Tagia sp.; conditions: acute; duration: 14 days; mortality
[9] = system: Daphnia magna; conditions: chronic/long-term; duration: 21 days; mobility

COc1cc(OC)nc(NC(=O)NS(=O)(=O)Nc2ccccc2C(=O)N(C)C)n1 [Orthosulfamuron]
LC50 [1]: > 123 µg/mL
LD50 ([2]; duration: 5 days, diet): > 936 mg/kg-day
LD50 [2]: > 2000 mg/kg-day
NOEC ([2]; reproduction developmental, duration: 21 weeks): 112 mg/kg-day
LD50 ([3]; dermal): > 100 µg/piece
LC50 ([3]; oral, unspecified): > 109 µg/piece
LD50 ([4]; acute, oral, mortality): > 5000 mg/kg-day
NOAEL ([4]; chronic, duration: 2 years, other): 5 mg/kg-day
NOAEL ([4]; reproduction developmental, mobility): 70.8 mg/kg-day
NOAEL ([4]; reproduction developmental, other): 5 mg/kg-day
LOAEL ([4]; subchronic, duration: 90 days, oral, immunology): 19 mg/kg-day
NOAEL [5]: 75 mg/kg-day
NOEC [6]: 66.9 mg/L
NOEC [7]: 6.1 mg/L
LC50 [8]: > 1000 mg/kg
NOEC [9]: 10 mg/L
